Assay results published in patent US5837729A, “Methods for treating and preventing HIV infection using acetaminophen and derivatives thereof” (priority 1996, dated 1998).
≈ marks a conversion by molar mass, not a printed value. Where “and” joins values, the source holds several entries; their conditions need not be identical. Equal entries are not always repeated. Entries after “also recorded” stand apart in the source; their conditions may differ. Where two headings read alike, the source gives them in different places.

Assays:
[1] = tested on: HIV; experiment: HIV infection of MT-4 T lymphocytes, p24 ELISA of culture supernatant on day 2; type: cell-based; conditions: for IC100 / IC50: Human immunodeficiency virus 1, T-lymphocyte; for IC100: 48 h; for anti-HIV activity (in words) / IC50: MT-4, p24
Procedure: (§1) The % values on the right axis were positioned in a fashion that allows estimation of inhibitory effect of the test drug as a function of AGB concentration plotted on the horizontal axis.
(§2) The % values on the right axis were positioned in a fashion that allows estimation of the inhibitory effect of test drug as a function of EGB concentration plotted on the horizontal axis.
Indicator MT-4 T lymphocytes (10^5 cells/ml) were plated in triplicates in 96-well culture plates in the presence of serial 10-fold molar dilutions of test compound. Each culture well contained 180 μl of RPMI 1640 culture medium with 10% FBS, L-glutamine, penicillin and streptomycin. Immediately thereafter MT-4 lymphocytes were exposed to 20 μl of viral inoculum corresponding to 100 infectious units per lymphocyte as determined by limiting dilution assay. Two days later--the minimal time period corresponding to full replication cycle of HIV--the culture supernatants were collected and dose-response to drugs was quantitated by measuring the levels of cell-free p24 antigen. The amount of released virus was calculated by comparing the optical density of experimental values from treated wells to commercial p24 standards (Coulter, Hialeah, Fla.).
(§3) The serial ten-fold dilutions of AGB, virus, and cells were left without washing in the culture until tested for HIV production 2 days later. Topical contraceptive agents nonoxynol-9 and gramicidin were used as controls.
(§4) The serial ten-fold dilutions of EGB, virus, and cells were left without washing in the culture until tested for HIV production 2 days later. Topical contraceptive agents nonoxynol-9 and gramicidin were used as controls.

[2] = tested on: MT-4 T lymphocytes; experiment: MT-4 viability/cytotoxicity by XTT assay (2 days)
From the text: (§5) The % values on the right axis were positioned in a fashion that allows estimation of inhibitory effect of the test drug as a function of acetaminophen concentration plotted on the horizontal axis.
as §1, §2
(§6) The toxicity of compounds was tested as follows. MT-4 lymphocytes were grown in the presence or absence of log10 dilutions of test compounds for two days. The cells were then exposed for 4 hours to the preparation of XTT tetrasolium salt (Sigma, St Louis, Mo.) containing phenazine methosulfate (Aldrich, Milwaukee, Wis.). The viability of drug-exposed cells was determined based on activity of mitochondrial […] of MT-4 converting XTT into color-dense formazan. Optical density was then determined in a plate reader at […] with reference filter at […] and compared to absorbance values of the control cells cultured without drugs. XTT test was also confirmed by trypan blue exclusion test based on the principle that nuclei of dead cells are stained blue.
as §3, §4

[3] = cited from earlier work
[4] = tested on: MT-4 T lymphocytes; type: cell-based
Procedure: The toxicity of compounds was tested as follows.

[5] = cited from earlier work; for potency as experimental vaginal contraceptive, fold more potent than nonoxynol-9: versus nonoxynol-9
[6] = tested on: acrosin; conditions: correlated with contraceptive effect; cited from earlier work
[7] = tested on: HIV; conditions: cited from earlier work
[8] = tested on: human spermatozoa; conditions: in vitro with human spermatozoa and in animal studies; cited from earlier work
[9] = in vitro; conditions: human, mt-4 cells
From the text: as §5, §1, §2, §6, §3, §4

[10] = Table 1, MT-4, 2 days, read-out: IC100 (approximate order of anti-HIV concentration)
[11] = background, earlier work of inventor
[12] = p24 ELISA, MT-4 supernatant, day 2, read-out: Complete inhibition of HIV replication, concentration

Compound: nonoxynol-9
- IC100 (approximate order of anti-HIV concentration) ([1]; Table 1, MT-4, 2 days): 10 µg
- CC100 (cytotoxicity) ([2]; Table 1, MT-4, 2 days): 10 µg
- local toxicity (in words) ([3]; spermicidal agent, effective concentration): local toxicity of this agent is incompatible with its antiviral activity when used at an effective concentration

Compound: CCOC(=O)c1ccc(OC(=O)c2ccc(NC(=N)N)cc2)cc1 [EGB, 4'-carboethoxyphenyl 4-guanidinobenzoate]
- SI, selectivity index, ratio between CC100 and IC100 values [1]: 1
- IC100 [1, 10]: 100 µg/mL
- anti-HIV activity (in words) [1]: antiviral activity was not specific and due to the death of host lymphocytes; also recorded: no effect on HIV infection at doses that were not toxic; also recorded: has not shown specific anti-HIV activity
- CC100 (cytotoxicity) ([2]; human, 2880 min): 100 µg
- viability of MT-4 lymphocytes by trypan blue exclusion (in words) [4]: death of MT-4 lymphocytes
- toxicity and irritation versus nonoxynol-9 (in words) [5]: far less toxic and irritating
- potency as experimental vaginal contraceptive, fold more potent than nonoxynol-9 [5]: up to 100 fold
- acrosin activity (in words) [6]: inhibitory action on acrosin activity

Compound: CC(=O)CC(c1ccccc1)c1c(O)c2ccccc2oc1=O (stereo not drawn) [warfarin]
- anti-HIV effect / inhibition of HIV replication (in words) [7, 11]: anti-HIV effect

Compound: CN/C(=N/CCSCc1nc[nH]c1C)NC#N [cimetidine]
- anti-HIV effect / inhibition of HIV replication (in words) [7]: able to inhibit HIV replication without producing significant cytotoxicity

Compound: COc1ccc2c(c1)c(CC(=O)O)c(C)n2C(=O)c1ccc(Cl)cc1 [indomethacin]
- relative anti-HIV potency (in words) ([7]; indomethacin versus aspirin): more potent than aspirin

Compound: estrogen
- anti-HIV effect / inhibition of HIV replication (in words) [7, 11]: anti-HIV effect

Compound: CC(C)C[C@H](NC(=O)[C@@H](O)[C@H](N)Cc1ccccc1)C(=O)O [bestatin]
- anti-HIV effect / inhibition of HIV replication (in words) [7, 11]: anti-HIV effect

Compound: CC(=O)[C@H]1CC[C@H]2[C@@H]3CCC4=CC(=O)CC[C@]4(C)[C@H]3CC[C@]12C [progesterone]
- anti-HIV effect / inhibition of HIV replication (in words) [7, 11]: anti-HIV effect

Compound: C[C@@H]1C[C@H]2[C@@H]3CCC4=CC(=O)C=C[C@]4(C)[C@@]3(F)[C@@H](O)C[C@]2(C)[C@@]1(O)C(=O)CO [dexamethasone]
- anti-HIV effect / inhibition of HIV replication (in words) [7, 11]: anti-HIV effect

Compound: gramicidin
- IC100 (approximate order of anti-HIV concentration) ([1]; Table 1, MT-4, 2 days): 0.01 µg
- CC100 (cytotoxicity) ([2]; Table 1, MT-4, 2 days): 10 µg
- toxicity relative to AGB (in words) ([2]; dose compared with AGB): toxic at doses that are a thousand-fold lower than AGB
- anti-HIV effect / inhibition of HIV replication (in words) [7, 11]: able to inhibit HIV replication without producing significant cytotoxicity

Compound: CC(=O)Nc1ccc(OC(=O)c2ccc(NC(=N)N)cc2)cc1 [AGB, 4'-acetamidophenyl 4-guanidinobenzoate]
- antiviral potency relative to nonoxynol-9, times less potent [1]: 10 times
- IC100 [1, 10]: 100 µg/mL
- IC100 [1, 12]: 100 µg/mL
- IC50 ([1]; read-out: anti-HIV activity in vitro, IC50): 14 µg/mL (≈ 44.8 µM)
- SI, selectivity index, ratio between CC100 and IC100 values ([1]; Table 1, CC100/IC100): 100
- CC100 (cytotoxicity) ([2]; human, 2880 min): 10000 µg
- toxicity and irritation versus nonoxynol-9 (in words) [5]: far less toxic and irritating
- potency as experimental vaginal contraceptive, fold more potent than nonoxynol-9 [5]: up to 100 fold
- acrosin activity (in words) [6]: inhibitory action on acrosin activity
- optimal concentration required to inhibit both acrosome reaction and sperm motility [8]: 100 µg/mL

Compound: CC(=O)Nc1ccc(O)cc1 [Acetaminophen, acetaminophen]
- IC100 [1, 10]: 150 µg/mL
- IC100 [1, 12]: 150 µg/mL and 1000 µM
- IC50 ([1]; read-out: inhibitory concentration (IC50), 50% inhibition of de novo HIV infection): 21 µg/mL (≈ 139 µM)
- anti-HIV activity (in words) [1]: antivirally active
- selectivity ratio [9]: ≤ 75
- toxicity at tested concentrations (in words) [2]: has not shown any toxicity at all tested concentrations
- toxic dose-effect by XTT formazan OD (in words) ([2]; up to highest tested dose containing 0.5% of ethanol): no observable toxic dose-effect
- anti-inflammatory activity (in words) ([3]; human, in vivo): no anti-inflammatory activity
- toxicity / hepatotoxicity (in words) ([3]; overdose or consumption with alcohol): can cause hepatotoxicity

Compound: c1ccc([C@H]2CN3CCSC3=N2)cc1 [levamisole]
- anti-HIV effect / inhibition of HIV replication (in words) [7]: anti-HIV effect
